Measured values reported in US20240158446A1, “CYCLIC COMPOUND HAVING SELECTIVE INHIBITORY ACTION ON KRAS OVER HRAS AND NRAS” (CHUGAI SEIYAKU KABUSHIKI KAISHA, priority 2021, published 2024).

Columns and labels:
[1] = biological target: GDP-bound KRAS wild-type protein (Homo sapiens, UniProt P01116); test: Binding to KRAS by surface plasmon resonance (SPR), Single Cycle Kinetics; conditions: SPR, Single Cycle Kinetics, 1:1 binding model; GDP-bound KRAS wild-type protein; read-out: KRAS KD
[2] = biological target: GDP-bound NRAS wild-type protein (Homo sapiens, UniProt P01111); test: Binding to NRAS by surface plasmon resonance (SPR), Single Cycle Kinetics; conditions: SPR; GDP-bound NRAS wild-type protein vs GDP-bound KRAS wild-type protein; KD ratio class
[3] = biological target: GDP-bound HRAS wild-type protein (Homo sapiens, UniProt P01112); test: Binding to HRAS by surface plasmon resonance (SPR), Single Cycle Kinetics; conditions: SPR; GDP-bound HRAS wild-type protein vs GDP-bound KRAS wild-type protein; KD ratio class
Sequence of GDP-bound HRAS wild-type protein (P01112 whole entry): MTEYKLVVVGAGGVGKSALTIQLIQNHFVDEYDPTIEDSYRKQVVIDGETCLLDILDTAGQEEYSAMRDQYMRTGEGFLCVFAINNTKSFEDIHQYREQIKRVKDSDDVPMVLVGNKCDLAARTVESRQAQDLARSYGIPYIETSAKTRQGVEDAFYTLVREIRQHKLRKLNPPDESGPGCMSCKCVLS

Sequence of GDP-bound KRAS wild-type protein (P01116 whole entry): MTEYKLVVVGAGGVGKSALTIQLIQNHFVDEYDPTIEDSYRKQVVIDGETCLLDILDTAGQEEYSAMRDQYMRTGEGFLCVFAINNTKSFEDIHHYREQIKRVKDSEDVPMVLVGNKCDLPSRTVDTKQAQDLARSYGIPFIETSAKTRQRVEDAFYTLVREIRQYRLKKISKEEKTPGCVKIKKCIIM
Sequence of GDP-bound NRAS wild-type protein (P01111 whole entry): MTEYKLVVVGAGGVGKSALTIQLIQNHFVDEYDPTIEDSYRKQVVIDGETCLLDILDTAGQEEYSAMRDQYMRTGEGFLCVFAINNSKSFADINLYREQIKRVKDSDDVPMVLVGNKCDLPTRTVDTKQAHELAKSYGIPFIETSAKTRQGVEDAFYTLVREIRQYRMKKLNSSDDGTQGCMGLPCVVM

Row | SMILES | Kd [1] | NRAS/KRAS (ratio of KD value for NRAS to KD value for KRAS) [2] | HRAS/KRAS (ratio of KD value for HRAS to KD value for KRAS) [3]
1 | CCO[C@@H]1C[C@H]2C(=O)NC3(CCC3)C(=O)N(C)[C@@H](C3CCCC3)C(=O)N(C)[C@H](C(=O)N(C)CC)CC(=O)N(C)[C@@H](CC)C(=O)N[C@@H]([C@@H](C)CC)C(=O)N(C)CC(=O)N(C)[C@H]3C/C=C\CCN(C3=O)[C@@H](CC3CCCCC3)C(=O)N(C)CC(=O)N[C@@H](CCc3cc(F)c(C(F)(F)F)c(F)c3)C(=O)N2C1 [PP1552] | 0.19 nM | A (a compound having 10 or more and less than 20 is denoted as A) | A (a compound having 10 or more and less than 20 is denoted as A)
2 | CCO[C@@H]1C[C@H]2C(=O)NC3(CCC3)C(=O)N(C)[C@@H](C3CCCC3)C(=O)N(C)[C@H](C(=O)N(C)CC)CC(=O)N(C)[C@@H](CC)C(=O)N[C@@H]([C@@H](C)CC)C(=O)N(C)CC(=O)N(C)[C@H]3C/C=C\CCN(C3=O)[C@@H](CC3CCC(F)(F)CC3)C(=O)N(C)CC(=O)N[C@@H](CCc3cc(F)c(C(F)(F)F)c(F)c3)C(=O)N2C1 [PP1553, (2S,8S,12R,14S,20S,23S,27S,30S,36S,38Z)-20-cyclopentyl-2-[(4,4-difluorocyclohexyl)methyl]-8-[2-[3,5-difluoro-4-(trifluoromethyl)phenyl]ethyl]-12-ethoxy-N,27-diethyl-N,4,19,22,26,32,35-heptamethyl-30-[(1S)-1-methylpropyl]-3,6,9,15,18,21,25,28,31,34,42-undecaoxo-spiro[1,4,7,10,16,19,22,26,29,32,35-undecazatricyclo[34.5.1.0^10,14]dotetracont-38-ene-17,1′-cyclobutane]-23-carboxamide] | 0.13 nM | A (a compound having 10 or more and less than 20 is denoted as A) | A (a compound having 10 or more and less than 20 is denoted as A)
3 | CCO[C@@H]1C[C@H]2C(=O)NC3(CC(C)(C)C3)C(=O)N(C)[C@@H](C3CCCC3)C(=O)N(C)[C@H](C(=O)N(C)C)CC(=O)N(C)[C@@H](CC)C(=O)N[C@@H]([C@@H](C)CC)C(=O)N(C)CC(=O)N(C)[C@H]3C/C=C\CCN(C3=O)[C@@H](Cc3ccc(C(F)(F)F)cc3)C(=O)N(C)CC(=O)N[C@@H](CCc3ccc(C(F)(F)F)c(OC)c3)C(=O)N2C1 [PP1559] | 0.047 nM | A (a compound having 10 or more and less than 20 is denoted as A) | A (a compound having 10 or more and less than 20 is denoted as A)
4 | CCC[C@H]1C(=O)N[C@@H]([C@@H](C)CC)C(=O)N(C)CC(=O)N(C)[C@H]2C/C=C\CCN(C2=O)[C@@H](Cc2ccc(C(F)(F)F)cc2)C(=O)N(C)CC(=O)N[C@@H](CCc2ccc(C(F)(F)F)c(OC)c2)C(=O)N2C[C@H](OCC)C[C@H]2C(=O)NC2(CC(C)(C)C2)C(=O)N(C)[C@@H](C2CCCC2)C(=O)N(C)[C@H](C(=O)N(C)C)CC(=O)N1C [PP1560] | 0.069 nM | A (a compound having 10 or more and less than 20 is denoted as A) | B (a compound having 3 or more and less than 10 is denoted as B)
5 | CCO[C@@H]1C[C@H]2C(=O)NC3(CC(C)(C)C3)C(=O)N(C)[C@@H](C3CCCC3)C(=O)N(C)[C@H](C(=O)N(C)C)CC(=O)N(C)[C@@H](CC3CC3)C(=O)N[C@@H]([C@@H](C)CC)C(=O)N(C)CC(=O)N(C)[C@H]3C/C=C\CCN(C3=O)[C@@H](Cc3ccc(C(F)(F)F)cc3)C(=O)N(C)CC(=O)N[C@@H](CCc3ccc(C(F)(F)F)c(OC)c3)C(=O)N2C1 [PP1563] | 0.048 nM | A (a compound having 10 or more and less than 20 is denoted as A) | A (a compound having 10 or more and less than 20 is denoted as A)
6 | CCO[C@@H]1C[C@H]2C(=O)NC3(CC(C)(C)C3)C(=O)N(C)[C@@H](C3CCCC3)C(=O)N(C)[C@H](C(=O)N(C)C)CC(=O)N(C)[C@@H](CC3CC3)C(=O)N[C@@H]([C@@H](C)CC)C(=O)N(C)CC(=O)N(C)[C@H]3C/C=C\CCN(C3=O)[C@@H](Cc3ccc(C(F)(F)F)cc3)C(=O)N(C)CC(=O)N[C@@H](CCc3cc(F)c(C(F)(F)F)c(F)c3)C(=O)N2C1 [PP1568] | 0.031 nM | A (a compound having 10 or more and less than 20 is denoted as A) | A (a compound having 10 or more and less than 20 is denoted as A)
7 | CCCOC[C@H]1C(=O)N[C@@H]([C@@H](C)CC)C(=O)N(C)CC(=O)N(C)[C@H]2C/C=C\CCN(C2=O)[C@@H](Cc2ccc(C(F)(F)F)cc2)C(=O)N(C)CC(=O)N[C@@H](CCc2cc(F)c(C(F)(F)F)c(F)c2)C(=O)N2C[C@H](OCC)C[C@H]2C(=O)NC2(CCC2)C(=O)N(C)[C@@H](C2CCCC2)C(=O)N(C)[C@H](C(=O)N(C)CC)CC(=O)N1C [PP1569] | 0.11 nM | A (a compound having 10 or more and less than 20 is denoted as A) | B (a compound having 3 or more and less than 10 is denoted as B)
8 | CC[C@H](C)[C@@H]1NC(=O)[C@H](CC2CC2)N(C)C(=O)C[C@@H](C(=O)N(C)CC)N(C)C(=O)[C@H](C2CCCC2)N(C)C(=O)C2(CC(C)(C)C2)NC(=O)[C@@H]2C[C@@H](F)CN2C(=O)[C@H](CCc2cc(F)c(C(F)(F)F)c(F)c2)NC(=O)CN(C)C(=O)[C@H](Cc2ccc(C(F)(F)F)cc2)N2CC/C=C\C[C@@H](C2=O)N(C)C(=O)CN(C)C1=O [PP1570] | 0.051 nM | AA (a compound having 20 or more is denoted as AA) | A (a compound having 10 or more and less than 20 is denoted as A)
9 | CC[C@H](C)[C@@H]1NC(=O)[C@H](CC2CC2)N(C)C(=O)C[C@@H](C(=O)N(CC)CC)N(C)C(=O)[C@H](C2CCCC2)N(C)C(=O)C2(CC(C)(C)C2)NC(=O)[C@@H]2C[C@@H](F)CN2C(=O)[C@H](CCc2cc(F)c(C(F)(F)F)c(F)c2)NC(=O)CN(C)C(=O)[C@H](Cc2ccc(C(F)(F)F)cc2)N2CC/C=C\C[C@@H](C2=O)N(C)C(=O)CN(C)C1=O [PP1571] | 0.15 nM | A (a compound having 10 or more and less than 20 is denoted as A) | A (a compound having 10 or more and less than 20 is denoted as A)
10 | CCCOC[C@H]1C(=O)N[C@@H]([C@@H](C)CC)C(=O)N(C)CC(=O)N(C)[C@H]2C/C=C\CCN(C2=O)[C@@H](Cc2ccc(C(F)(F)F)cc2)C(=O)N(C)CC(=O)N[C@@H](CCc2cc(F)c(C(F)(F)F)c(F)c2)C(=O)N2C[C@H](OCC)C[C@H]2C(=O)NC2(CC(C)(C)C2)C(=O)N(C)[C@@H](C2CCCC2)C(=O)N(C)[C@H](C(=O)N(C)CC)CC(=O)N1C [PP1572] | 0.078 nM | A (a compound having 10 or more and less than 20 is denoted as A) | A (a compound having 10 or more and less than 20 is denoted as A)
11 | CCO[C@@H]1C[C@H]2C(=O)NC3(CCCC3)C(=O)N(C)[C@@H](C3CCCC3)C(=O)N(C)[C@H](C(=O)N(C)CC)CC(=O)N(C)[C@@H](CC(C)C)C(=O)N[C@@H]([C@@H](C)CC)C(=O)N(C)CC(=O)N(C)[C@H]3C/C=C\CCN(C3=O)[C@@H](Cc3ccc(C(F)(F)F)cc3)C(=O)N(C)CC(=O)N[C@@H](CCc3cc(F)c(C(F)(F)F)c(F)c3)C(=O)N2C1 [PP1574, (2S,8S,12R,14S,20S,23S,27S,30S,36S,38Z)-20-cyclopentyl-8-[2-[3,5-difluoro-4-(trifluoromethyl)phenyl]ethyl]-12-ethoxy-N-ethyl-27-isobutyl-N,4,19,22,26,32,35-heptamethyl-30-[(1S)-1-methylpropyl]-3,6,9,15,18,21,25,28,31,34,42-undecaoxo-2-[[4-(trifluoromethyl)phenyl]methyl]spiro[1,4,7,10,16,19,22,26,29,32,35-undecazatricyclo[34.5.1.0^10,14]dotetracont-38-ene-17,1′-cyclopentane]-23-carboxamide] | 0.15 nM | A (a compound having 10 or more and less than 20 is denoted as A) | A (a compound having 10 or more and less than 20 is denoted as A)
12 | CCCOC[C@H]1C(=O)N[C@@H]([C@@H](C)CC)C(=O)N(C)CC(=O)N(C)[C@H]2C/C=C\CCN(C2=O)[C@@H](Cc2ccc(C(F)(F)F)cc2)C(=O)N(C)CC(=O)N[C@@H](CCc2cc(F)c(C(F)(F)F)c(F)c2)C(=O)N2C[C@H](OCC)C[C@H]2C(=O)NC2(CC(C)(C)C2)C(=O)N(C)[C@@H](C2CCCC2)C(=O)N(C)[C@H](C(=O)N(CC)CC)CC(=O)N1C [PP1575] | 0.55 nM | B (a compound having 3 or more and less than 10 is denoted as B) | B (a compound having 3 or more and less than 10 is denoted as B)
13 | CCO[C@@H]1C[C@H]2C(=O)NC3(CC(C)(C)C3)C(=O)N(C)[C@@H](C3CCCC3)C(=O)N(C)[C@H](C(=O)N(C)CC)CC(=O)N(C)[C@@H](CC)C(=O)N[C@@H]([C@@H](C)CC)C(=O)N(C)CC(=O)N(C)[C@H]3C/C=C\CCN(C3=O)[C@@H](Cc3ccc(C(F)(F)F)cc3)C(=O)N(C)CC(=O)N[C@@H](CCc3cc(F)c(C(F)(F)F)c(F)c3)C(=O)N2C1 [PP1579] | 0.087 nM | A (a compound having 10 or more and less than 20 is denoted as A) | B (a compound having 3 or more and less than 10 is denoted as B)
